The text below walks through data of ChEMBL document CHEMBL1201862, “PubChem BioAssay data set” (2004).

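The compound was tested at five concentrations on cells cultured in 96-well plates, with a 48-hour exposure period. Here, GI50 denotes the concentration required for 50% inhibition of growth.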 Calls of active or inactive are those of the source. Cut-off read from the data, not from the text of the source: active = GI50 up to about 1.1 µM and inactive = higher.

Common to all, as to assay: inhibition of tumour cell growth, NCI panel, 48 h
The test system of test [1] is A549.
For test [2], the system named is ACHN.
The subject of test [3] is BT-549.
The subject of test [4] is CCRF-CEM.
Test [5] deals with HCT-116.
In test [6] the test system is HOP-62.
The test system of test [7] is Hs-578T.
Test [8] deals with MCF7.
The subject of test [9] is Malme-3M.
Test [10] relates to NCI-H522.
In test [11] the test system is NCI/ADR-RES.
In test [12] the test system is PC-3.
Test [13] has as its system SK-MEL-28.
Test [14] has as its system SK-OV-3.
Test [15] has as its system SN12C.
In test [16] the test system is SNB-75.
Test [17] deals with SR.
The subject of test [18] is SW-620.
Test [19] deals with T47D.
For test [20], the system named is UACC-62.

Take `COC1=C(Br)[C@H](O)[C@@]2(C=C1Br)CC(C(=O)NCCCCCNC(=N)N)=NO2` [APLYSINAMISINE II]: the GI50 in [1], in test [2], in test [3], in test [4], in [5] and in [6] was > 10 µM (inactive) in each case. The GI50 in [7], in test [8], in test [9], in test [10], in test [11] and in test [12] was > 10 µM (inactive) each time. The GI50 in test [13] was > 10 µM (inactive); in [14] it was > 10 µM (inactive); in [15], > 10 µM (inactive); in test [16], 6.79 µM (inactive); in test [17] it was 6.87 µM (inactive); in test [18], > 10 µM (inactive). Also, the GI50 in test [19] and in test [20] was > 10 µM (inactive) in each case.

As for `CCOC(=O)c1c2c(n(-c3ccc(C)cc3)c1C)-c1ccccc1C(=O)C2(C(=O)OCC)C(=O)OCC`, the GI50 in test [1] was 30.7 µM (inactive); in test [2], 44.3 µM (inactive); in test [3], 24.8 µM (inactive); in [4] it was 29 µM (inactive); in test [5], 31.4 µM (inactive); in test [6] it was 78.7 µM (inactive). Further, the GI50 in [7] is 25.3 µM (inactive); in [8], 25.9 µM (inactive); in test [9], 30.1 µM (inactive); in test [10] it was 25.1 µM (inactive); in test [11], 33.4 µM (inactive); in test [12], 33.7 µM (inactive). The GI50 in [13] is 27.3 µM (inactive); in test [14], > 76.6 µM (inactive); in test [15] it was 34.4 µM (inactive); in [16] it was 28.6 µM (inactive); in test [17], 1.31 µM (inactive); in test [18], 37.1 µM (inactive). The values for the GI50 in test [19] and in [20] were 20.7 µM (inactive) and 27.3 µM (inactive), respectively.

Consider `OC(C1CCCCCCCCCC1)C(O)C1CCCCCCCCCC1` (stereo not given), for which the GI50 in test [1], in test [2], in test [3], in test [4], in test [5] and in test [6] was > 100 µM (inactive) throughout. Also, the GI50 in test [7] is > 100 µM (inactive); in test [8] it was > 100 µM (inactive); in [9], > 100 µM (inactive); in test [10] it was 61 µM (inactive); in test [11], > 100 µM (inactive); in test [12], > 100 µM (inactive). Moreover, the GI50 in test [13], in test [14], in test [15], in test [16], in test [17] and in test [18] was > 100 µM (inactive) throughout. Further, the GI50 in [19] and in test [20] was > 100 µM (inactive) throughout.

Take `Cc1ccsc1C(=S)Nc1ccc(Cl)c(/C=N/OC(C)C)c1`: the GI50 is 46.6 µM (inactive) in test [1]; 25.2 µM (inactive) in [2]; 67.9 µM (inactive) in test [3]; 38.1 µM (inactive) in test [4]; 27.4 µM (inactive) in test [5]; 64.9 µM (inactive) in test [6]. For the same molecule, the GI50 is 45.8 µM (inactive) in [7]; 15.6 µM (inactive) in test [8]; 35.1 µM (inactive) in test [9]; 28.3 µM (inactive) in test [10]; 30 µM (inactive) in test [11]; 80.7 µM (inactive) in test [12]. The GI50 in test [13] is 67.8 µM (inactive); in test [14], 55.5 µM (inactive); in test [15], 32.5 µM (inactive); in test [16], 48.2 µM (inactive); in [17], 16.3 µM (inactive); in test [18] it was 34.3 µM (inactive). The GI50 in test [19] was 17.8 µM (inactive); in test [20] it was 64.1 µM (inactive).

In the case of `COc1ccc(/C=C2\CCC(CNc3ccc(S(N)(=O)=O)cc3)C2=O)cc1` (stereo not given), the GI50 in test [1] was > 82.8 µM (inactive); in test [2] it was 23.1 µM (inactive); in test [3] it was 18.7 µM (inactive); in test [4] it was 2.29 µM (inactive); in [5] it was 8.65 µM (inactive); in test [6], 37.8 µM (inactive). Also, the GI50 in [7] was 43 µM (inactive); in test [8], 1.74 µM (inactive); in test [9], 16 µM (inactive); in test [10], 4.52 µM (inactive); in [11] it was 31.6 µM (inactive); in [12], 21.9 µM (inactive). Moreover, the GI50 in test [13] is 16.7 µM (inactive); in test [14], > 100 µM (inactive); in [15], 18.6 µM (inactive); in test [16], 32.1 µM (inactive); in test [17], 1.9 µM (inactive); in [18], 1.95 µM (inactive). Besides, the figures for the GI50 in test [19] and in test [20] were 17 µM (inactive) and 24.5 µM (inactive), respectively.

On to `Clc1ccc(Cl)c(Nc2ccnc(SCc3ccccc3)n2)c1`, for which the GI50 in test [1], in [2], in test [3], in test [4], in test [5] and in [6] was > 100 µM (inactive) throughout. The GI50 in test [7] was > 100 µM (inactive); in test [8], > 100 µM (inactive); in [9], > 100 µM (inactive); in test [10], 84.9 µM (inactive); in test [11], > 100 µM (inactive); in [12] it was > 100 µM (inactive). The GI50 in [13], in test [14], in test [15], in test [16], in test [17] and in [18] was > 100 µM (inactive) in each case. For the same molecule, the GI50 in [19] is 32.4 µM (inactive); in test [20], > 100 µM (inactive).

Consider `C=C(CN(C)C)C(=O)c1cc(C)ccc1C`, for which the GI50 in [1] was 19.7 µM (inactive); in test [2], 3.54 µM (inactive); in test [3], 10.2 µM (inactive); in test [4], 0.345 µM (active); in test [5] it was 4.7 µM (inactive); in [6] it was 18.7 µM (inactive). Moreover, the GI50 was 28.7 µM (inactive) in test [7]; 2.96 µM (inactive) in test [8]; 2.5 µM (inactive) in test [9]; 0.843 µM (active) in [10]; 18.3 µM (inactive) in test [11]; 14.1 µM (inactive) in test [12]. For the same molecule, the GI50 is 9.1 µM (inactive) in test [13]; 18.4 µM (inactive) in [14]; 15.6 µM (inactive) in [15]; 17.2 µM (inactive) in [16]; 0.726 µM (active) in test [17]; 1.82 µM (inactive) in test [18]. The values for the GI50 in test [19] and in [20] were 4.11 µM (inactive) and 10.5 µM (inactive), respectively.
